Consider three compounds from ChEMBL document CHEMBL5154787 (J Med Chem, 2022).

In data set [1] the target is BMP-2-inducible protein kinase (Homo sapiens, UniProt Q9NSY1). Put plainly: Inhibition of BIKE (unknown origin).
Data set [2] has as its target T1, AP2-associated protein kinase 1 (Homo sapiens, UniProt Q2M2I8). Put plainly: Inhibition of bacterially expressed GST-Xa-tagged human AAK1 using 5-FAM-labelled Aha-KEEQSQITSQVTGQIGWR-NH2 peptide as substrate incubated for 3 hrs in presence of ATP by electrophoretic analysis.
Data set [3] deals with T1, AP2-associated protein kinase 1. Put plainly: Inhibition of full length human AAK1 expressed in HEK293F cells assessed as suppression of AP2 phosphorylation measured after 3 hrs by Western blot analysis based cellular assay. It counts as cell-based. Background: Immunoblotting shows a protein as a band on a membrane.
Another data set concerns the target Cytochrome P450 3A4 (Homo sapiens, UniProt P08684). Put plainly: Inhibition of CYP3A4 (unknown origin) incubated for 10 mins in presence of NADPH by LC-MS/MS analysis. It counts as ADME.
Data set [4] deals with AP2-associated protein kinase 1 (Mus musculus, UniProt Q3UHJ0). Put plainly: Displacement of 3H-LP-927443 from AAK1 in C57BL6 mouse brain homogenate assessed as inhibition constant incubated for 1 hr by liquid scintillation counter analysis. It counts as tissue-based. For orientation: Loss of bound radioactivity is the signal in a displacement assay; it reports binding, not function.

The next data set concerns the target Aurora kinase C (Homo sapiens, UniProt Q9UQB9). Put plainly: Inhibition of AURC (unknown origin).
The target in data set [5] is MAP kinase-interacting serine/threonine-protein kinase 1 (Homo sapiens, UniProt Q9BUB5). Put plainly: Inhibition of MNK1 (unknown origin).
A short description of data set [6]: Metabolic stability in human liver microsomes assessed as parent compound remaining at 0.5 uM incubated for 10 mins in presence of NADPH by LC-MS/MS analysis. It counts as ADME, Microsome. To be noted: read-out: Stability.
For data set [7], the target named is Myosin light chain kinase 2, skeletal/cardiac muscle (Homo sapiens, UniProt Q9H1R3). Put plainly: Inhibition of MYLK2 (unknown origin).
The nature of data set [8]: Metabolic stability in rat liver microsomes assessed as parent compound remaining at 0.5 uM incubated for 10 mins in presence of NADPH by LC-MS/MS analysis. The settings on record: read-out: Stability. It counts as ADME, Microsome. For orientation: Liver microsomes are vesicles of endoplasmic reticulum, rich in cytochrome P450 enzymes.
Data set [9] deals with Protein kinase C beta type (Homo sapiens, UniProt P05771). Put plainly: Inhibition of PKCb2 (unknown origin).
Data set [10] has as its target Citron Rho-interacting kinase (Homo sapiens, UniProt O14578). Put plainly: Inhibition of CRIK (unknown origin).
A short description of data set [11]: Cardiotoxicity in aortic ring (unknown origin) assessed as relaxation of phenylephrine induced aortic ring contraction at 10 uM incubated for 1 hr. It counts as toxicity, tissue-based, Aorta. Details: scale not given: the % may be the effect or the level left. The settings on record: human.
A short description of data set [12]: Metabolic stability in mouse liver microsomes assessed as parent compound remaining at 0.5 uM incubated for 10 mins in presence of NADPH by LC-MS/MS analysis. It counts as ADME, Microsome. The settings on record: liver microsomes, read-out: Stability.
Data set [13] has as its target Rho-associated protein kinase 2 (Homo sapiens, UniProt O75116). Put plainly: Inhibition of ROCK2 (unknown origin).
In data set [14] the target is T2, Dual specificity mitogen-activated protein kinase kinase 1 (Homo sapiens, UniProt Q02750). Put plainly: Inhibition of MEK1 (unknown origin).
Data set [15] addresses T3, Homeodomain-interacting protein kinase 4 (Homo sapiens, UniProt Q8NE63).
T3 sequence (Q8NE63 whole entry): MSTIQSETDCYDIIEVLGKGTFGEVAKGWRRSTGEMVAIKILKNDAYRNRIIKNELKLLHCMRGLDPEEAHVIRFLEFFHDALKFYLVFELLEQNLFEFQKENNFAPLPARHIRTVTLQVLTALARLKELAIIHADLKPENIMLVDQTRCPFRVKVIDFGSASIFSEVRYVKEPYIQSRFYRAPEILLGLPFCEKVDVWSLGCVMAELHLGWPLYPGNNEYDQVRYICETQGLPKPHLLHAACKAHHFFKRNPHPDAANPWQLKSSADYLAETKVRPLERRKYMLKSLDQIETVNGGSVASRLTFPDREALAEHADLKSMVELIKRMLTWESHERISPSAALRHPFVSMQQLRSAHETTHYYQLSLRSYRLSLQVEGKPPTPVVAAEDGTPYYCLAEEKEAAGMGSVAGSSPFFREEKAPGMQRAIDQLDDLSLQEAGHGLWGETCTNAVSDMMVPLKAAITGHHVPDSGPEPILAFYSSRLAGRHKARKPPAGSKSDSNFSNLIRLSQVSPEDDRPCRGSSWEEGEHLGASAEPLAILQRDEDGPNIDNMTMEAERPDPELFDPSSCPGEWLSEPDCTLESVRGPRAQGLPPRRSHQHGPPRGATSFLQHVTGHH
Put plainly: Inhibition of HIPK4 (unknown origin).

Data set [16] concerns the target Dual specificity protein kinase CLK4 (Homo sapiens, UniProt Q9HAZ1). Put plainly: Inhibition of CLK4 (unknown origin).
In data set [17] the target is T2, Dual specificity mitogen-activated protein kinase kinase 1. Put plainly: Inhibition of MAP2K1 (unknown origin).
Data set [18] in a line: Inhibition of IGFR (unknown origin). Set-up: species or system Homo sapiens.

BMP-2-inducible protein kinase, sequence (Q9NSY1 whole entry): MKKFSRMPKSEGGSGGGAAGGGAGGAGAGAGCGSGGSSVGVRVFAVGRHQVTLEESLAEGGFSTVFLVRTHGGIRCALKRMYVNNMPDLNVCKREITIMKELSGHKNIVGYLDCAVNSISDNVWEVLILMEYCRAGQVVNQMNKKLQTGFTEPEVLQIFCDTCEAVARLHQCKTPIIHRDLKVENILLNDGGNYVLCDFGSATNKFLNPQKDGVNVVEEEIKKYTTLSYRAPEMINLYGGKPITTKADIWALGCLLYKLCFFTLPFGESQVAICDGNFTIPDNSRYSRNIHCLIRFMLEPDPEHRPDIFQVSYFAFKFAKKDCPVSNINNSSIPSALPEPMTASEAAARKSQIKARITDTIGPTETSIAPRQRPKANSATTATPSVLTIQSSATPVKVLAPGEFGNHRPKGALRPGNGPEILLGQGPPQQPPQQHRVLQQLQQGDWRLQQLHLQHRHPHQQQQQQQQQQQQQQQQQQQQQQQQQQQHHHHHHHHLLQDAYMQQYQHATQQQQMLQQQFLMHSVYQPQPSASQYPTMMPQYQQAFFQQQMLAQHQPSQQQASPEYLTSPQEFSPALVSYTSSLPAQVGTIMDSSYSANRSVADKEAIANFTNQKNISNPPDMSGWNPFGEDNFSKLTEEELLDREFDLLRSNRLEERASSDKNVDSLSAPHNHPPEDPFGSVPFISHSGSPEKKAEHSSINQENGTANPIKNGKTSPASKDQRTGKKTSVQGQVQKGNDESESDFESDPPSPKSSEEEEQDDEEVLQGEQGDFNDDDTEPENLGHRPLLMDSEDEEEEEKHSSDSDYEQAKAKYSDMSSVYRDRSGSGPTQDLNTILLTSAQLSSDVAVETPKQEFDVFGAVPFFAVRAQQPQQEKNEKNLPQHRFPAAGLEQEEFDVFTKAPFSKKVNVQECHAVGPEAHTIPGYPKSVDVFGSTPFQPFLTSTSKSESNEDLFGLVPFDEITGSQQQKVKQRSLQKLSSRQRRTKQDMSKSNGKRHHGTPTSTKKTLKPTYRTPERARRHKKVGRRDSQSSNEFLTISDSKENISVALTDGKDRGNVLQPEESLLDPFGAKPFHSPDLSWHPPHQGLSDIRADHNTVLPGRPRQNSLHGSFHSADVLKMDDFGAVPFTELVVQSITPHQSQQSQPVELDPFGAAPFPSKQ
T1 sequence (Q2M2I8 whole entry): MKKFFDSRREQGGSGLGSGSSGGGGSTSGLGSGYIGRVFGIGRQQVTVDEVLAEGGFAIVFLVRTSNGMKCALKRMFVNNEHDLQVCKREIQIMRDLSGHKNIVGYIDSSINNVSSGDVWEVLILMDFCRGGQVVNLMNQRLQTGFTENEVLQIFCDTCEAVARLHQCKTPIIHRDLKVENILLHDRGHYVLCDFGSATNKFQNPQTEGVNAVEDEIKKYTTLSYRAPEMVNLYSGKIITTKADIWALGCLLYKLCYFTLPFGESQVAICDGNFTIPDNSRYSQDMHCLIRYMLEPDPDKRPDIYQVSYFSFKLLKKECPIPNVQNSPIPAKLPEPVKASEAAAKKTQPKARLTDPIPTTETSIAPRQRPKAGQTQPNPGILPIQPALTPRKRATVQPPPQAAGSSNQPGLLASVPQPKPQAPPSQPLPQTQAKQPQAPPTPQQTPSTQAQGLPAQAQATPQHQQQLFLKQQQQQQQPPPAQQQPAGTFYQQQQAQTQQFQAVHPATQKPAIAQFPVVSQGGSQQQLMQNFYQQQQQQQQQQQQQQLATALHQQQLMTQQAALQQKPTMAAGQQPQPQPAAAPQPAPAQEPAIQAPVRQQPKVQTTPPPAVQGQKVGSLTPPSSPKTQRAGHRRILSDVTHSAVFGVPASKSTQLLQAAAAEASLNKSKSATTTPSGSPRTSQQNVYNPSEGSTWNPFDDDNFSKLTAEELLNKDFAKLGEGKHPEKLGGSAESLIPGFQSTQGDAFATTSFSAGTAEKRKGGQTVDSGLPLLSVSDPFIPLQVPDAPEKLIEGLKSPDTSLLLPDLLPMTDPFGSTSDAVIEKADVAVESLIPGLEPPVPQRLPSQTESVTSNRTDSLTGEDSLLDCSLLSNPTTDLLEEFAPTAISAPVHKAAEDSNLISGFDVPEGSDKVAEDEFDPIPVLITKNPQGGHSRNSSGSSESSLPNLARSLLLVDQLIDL
Cytochrome P450 3A4, sequence (P08684 whole entry): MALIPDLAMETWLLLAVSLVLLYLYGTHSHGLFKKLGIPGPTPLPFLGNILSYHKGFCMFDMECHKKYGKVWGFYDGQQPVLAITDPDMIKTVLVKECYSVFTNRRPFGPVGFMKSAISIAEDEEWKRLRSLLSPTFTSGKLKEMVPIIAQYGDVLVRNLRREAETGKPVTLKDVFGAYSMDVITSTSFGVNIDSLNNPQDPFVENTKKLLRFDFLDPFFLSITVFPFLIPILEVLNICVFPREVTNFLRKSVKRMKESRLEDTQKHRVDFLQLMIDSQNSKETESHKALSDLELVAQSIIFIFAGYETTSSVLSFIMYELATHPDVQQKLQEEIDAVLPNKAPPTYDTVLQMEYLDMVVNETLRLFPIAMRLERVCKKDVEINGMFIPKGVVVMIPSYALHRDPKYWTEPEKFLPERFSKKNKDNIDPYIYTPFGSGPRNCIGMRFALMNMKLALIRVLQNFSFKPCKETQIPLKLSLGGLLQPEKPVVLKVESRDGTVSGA
MAP kinase-interacting serine/threonine-protein kinase 1, sequence (Q9BUB5 whole entry): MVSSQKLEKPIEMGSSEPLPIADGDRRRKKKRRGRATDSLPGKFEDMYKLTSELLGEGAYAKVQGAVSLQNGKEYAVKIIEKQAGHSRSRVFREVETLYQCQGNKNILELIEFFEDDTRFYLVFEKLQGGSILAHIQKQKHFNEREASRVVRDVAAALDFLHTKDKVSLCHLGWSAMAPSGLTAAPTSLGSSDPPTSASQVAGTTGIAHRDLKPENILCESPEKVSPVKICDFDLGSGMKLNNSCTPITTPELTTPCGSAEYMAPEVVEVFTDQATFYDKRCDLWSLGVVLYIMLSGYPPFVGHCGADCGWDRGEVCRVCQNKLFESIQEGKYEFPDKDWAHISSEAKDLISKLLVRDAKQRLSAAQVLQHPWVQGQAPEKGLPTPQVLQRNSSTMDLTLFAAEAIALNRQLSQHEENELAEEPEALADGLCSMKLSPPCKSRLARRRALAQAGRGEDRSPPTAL
T2 sequence (Q02750 whole entry): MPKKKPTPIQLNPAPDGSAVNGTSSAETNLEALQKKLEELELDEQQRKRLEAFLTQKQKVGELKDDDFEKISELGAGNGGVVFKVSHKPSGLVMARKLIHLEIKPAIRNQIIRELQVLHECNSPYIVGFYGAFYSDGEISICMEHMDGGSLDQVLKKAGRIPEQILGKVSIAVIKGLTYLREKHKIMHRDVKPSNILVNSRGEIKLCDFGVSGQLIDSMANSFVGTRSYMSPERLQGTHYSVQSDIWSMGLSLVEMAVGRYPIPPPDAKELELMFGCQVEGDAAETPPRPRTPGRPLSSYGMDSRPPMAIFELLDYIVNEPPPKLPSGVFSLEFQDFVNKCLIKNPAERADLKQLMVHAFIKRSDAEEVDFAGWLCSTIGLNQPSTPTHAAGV
AP2-associated protein kinase 1 (Mus musculus, UniProt Q3UHJ0), sequence (Q3UHJ0 whole entry): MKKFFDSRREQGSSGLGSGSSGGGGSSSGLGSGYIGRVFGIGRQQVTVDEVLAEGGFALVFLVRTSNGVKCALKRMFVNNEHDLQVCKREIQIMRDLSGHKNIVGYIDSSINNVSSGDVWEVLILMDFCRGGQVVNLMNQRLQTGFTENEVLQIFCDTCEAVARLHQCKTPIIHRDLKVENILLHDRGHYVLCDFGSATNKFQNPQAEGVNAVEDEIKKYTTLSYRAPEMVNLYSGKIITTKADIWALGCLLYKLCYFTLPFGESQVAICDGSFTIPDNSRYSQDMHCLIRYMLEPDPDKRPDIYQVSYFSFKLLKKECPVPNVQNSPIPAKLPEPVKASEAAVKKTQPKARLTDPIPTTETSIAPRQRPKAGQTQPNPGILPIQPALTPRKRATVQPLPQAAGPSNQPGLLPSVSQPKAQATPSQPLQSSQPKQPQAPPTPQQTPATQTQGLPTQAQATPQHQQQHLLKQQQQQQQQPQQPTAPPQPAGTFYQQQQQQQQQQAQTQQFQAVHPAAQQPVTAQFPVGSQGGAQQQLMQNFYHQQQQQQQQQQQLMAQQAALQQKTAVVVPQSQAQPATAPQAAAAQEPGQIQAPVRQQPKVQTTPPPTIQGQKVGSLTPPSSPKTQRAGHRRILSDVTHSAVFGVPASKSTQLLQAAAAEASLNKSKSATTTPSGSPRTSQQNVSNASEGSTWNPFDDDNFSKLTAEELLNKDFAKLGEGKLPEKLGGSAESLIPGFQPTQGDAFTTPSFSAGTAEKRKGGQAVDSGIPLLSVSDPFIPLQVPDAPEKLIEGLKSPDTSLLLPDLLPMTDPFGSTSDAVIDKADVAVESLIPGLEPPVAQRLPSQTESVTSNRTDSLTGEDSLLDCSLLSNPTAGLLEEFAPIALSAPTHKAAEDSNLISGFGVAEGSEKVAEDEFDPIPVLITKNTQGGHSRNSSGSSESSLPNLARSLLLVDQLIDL
Myosin light chain kinase 2, skeletal/cardiac muscle, sequence (Q9H1R3 whole entry): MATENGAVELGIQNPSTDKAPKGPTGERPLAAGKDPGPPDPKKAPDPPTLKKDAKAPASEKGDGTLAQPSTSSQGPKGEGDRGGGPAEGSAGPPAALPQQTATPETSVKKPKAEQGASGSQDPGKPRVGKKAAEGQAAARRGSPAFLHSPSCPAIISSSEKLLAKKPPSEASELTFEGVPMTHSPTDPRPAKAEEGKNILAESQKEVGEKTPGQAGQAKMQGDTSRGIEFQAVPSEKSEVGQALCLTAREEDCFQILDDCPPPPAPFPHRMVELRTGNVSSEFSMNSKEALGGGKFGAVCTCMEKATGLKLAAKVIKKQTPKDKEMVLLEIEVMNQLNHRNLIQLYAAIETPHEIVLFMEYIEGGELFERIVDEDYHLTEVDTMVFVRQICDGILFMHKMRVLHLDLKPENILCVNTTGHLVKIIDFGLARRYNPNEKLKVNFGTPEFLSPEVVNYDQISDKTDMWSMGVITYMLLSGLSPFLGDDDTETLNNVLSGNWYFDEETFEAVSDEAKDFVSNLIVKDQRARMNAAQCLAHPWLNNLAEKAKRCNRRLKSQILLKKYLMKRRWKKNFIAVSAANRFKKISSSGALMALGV

In the case of `Cc1cc(-c2cc(C(F)F)c(OC[C@@](C)(N)CC(C)C)cn2)ccn1`, the IC50 (usually the concentration needed to halve the response being measured) was 180 nM in data set [1]; 0.5 nM in [2]; 0.9 nM in [3]; over 20000 nM at Cytochrome P450 3A4; 540 nM at Aurora kinase C; 250 nM in data set [5]. Moreover, the IC50 in [7] came out at 350 nM; in data set [9], 1600 nM; in [10], 750 nM. The Ki (commonly a dissociation constant, usually derived from enzyme kinetics or from competition with a known ligand) in data set [4] amounted to 0.18 nM. Besides, the remaining at 10 min, 0.5 µM in [6] came to 84%; in data set [8], 81%; in data set [12], 76%. Also, the Activity in data set [11] is 85%.
With `COC(=O)Nc1cc(-c2cnc(OC[C@@](C)(N)CC(C)C)c(Cl)c2)ccn1`, the IC50 in data set [1] is 6 nM; in data set [2] it was 0.4 nM; in data set [13], 1100 nM; in [3] it was 4.2 nM; at Cytochrome P450 3A4, over 20000 nM; in data set [14] it was 1800 nM. The IC50 came to 1300 nM in data set [15], 740 nM in [16] and 1860 nM in data set [17]. Further, the Ki in [4] is 0.11 nM. The remaining at 10 min, 0.5 µM in data set [6] came out at 90%; in [8] it was 73%; in [12] it was 65%. For the same compound, the Activity in data set [11] was 87%.
Turning to `CC(C)C[C@](C)(N)COc1cnc(-c2ccnc(Cl)c2)cc1C(F)F`, the IC50 in data set [1] is 260 nM; in [2], 0.8 nM; in data set [3], 2.7 nM; on Cytochrome P450 3A4 it was over 20000 nM; in [5], 490 nM; in data set [18] it was 1700 nM. Moreover, the remaining at 10 min, 0.5 µM in data set [6] is 92%; in data set [8] it was 93%; in [12], 93%. In addition, the Activity in data set [11] came to 81%.
